Consider one substance from patent US20220273752A1, “MODULATION OF DENDRITIC CELL FUNCTION BY THE PHOSPHOLIPID MESSENGER LPA” (Cornell University, priority 2019, published 2022).

Test [1] relates to bone marrow derived DCs (BMDCs). The experiment in a line: LPA receptor gene expression in BMDCs by RNA-seq. Type of test: cell-based, murine. Details: Lpar1 expression level / Lpar3 expression level / Lpar4 expression level / Lpar5 expression level / Lpar6 expression level: unit not given here. The following applies: RNA-seq relative expression. The procedure:
FIG. 1 illustrates relative expression levels of genes encoding lysophosphatidic acid (LPA) receptors in the indicated murine dendritic cell (DC) populations, as determined by RNA-seq. Ovarian cancer DCs were sorted from tumor locations of mice bearing ID8-based metastatic ovarian carcinoma for 24 days.
Relative expression levels of genes encoding LPA receptors in the indicated dendritic cell (DC) populations was determined by RNA-seq.
FIG. 1 illustrates that murine bone marrow derived DCs (BMDCs) as well as DCs infiltrating ovarian tumors expressed significant levels of genes encoding various LPA receptors, particularly Lpar6 (see also Table 3).

Another test concerns bone marrow-derived DCs. The experiment in a line: qPCR and Multiplex cytokine assays in BMDCs treated with LPA and Tunicamycin. The format is cell-based, mouse. Here is the method: FIG. 4A-4L graphically illustrate that induction of a set of highly tumorigenic and immunomodulatory genes is mainly PERK-dependent in LPA-exposed dendritic cells undergoing endoplasmic reticulum (ER) stress. Bone marrow-derived dendritic cells (BMDCs) from the indicated genotypes were left untreated or were incubated with LPA (100 μM), Tunicamycin (TM, 1 μg/ml) or with the combination of both for 6 hours. Gene expression was determined by qPCR. In all cases data, was normalized to endogenous Actb levels in each sample. These findings have further been confirmed using primary splenic dendritic cells and with an independent ER stressor, Thapsigargin (extensive data not shown). ***P<0.0005, ***P<0.0001. The serine/threonine-protein kinase/endoribonuclease inositol-requiring enzyme 1 α (IRE1α) in humans is encoded by the ERNI gene, and expression of the IRE1α protein is activated during endoplasmic reticulum (ER) stress. TM is a pharmacological ER stressor that causes protein glycosylation defects. FIG. 4A graphically illustrates expression of IL-1, in bone marrow-derived DCs from Ern1^f/f or Ern1^f/f Vav1-Cre (Ern1 knockout) mice with or without co-treatment by ER stressor Tunicamycin (TM) and/or physiological concentrations of LPA. […]

On to lysophosphatidic acid [LPA], for which, in test [1] (BMDC + LPA (2 hr.)), the Lpar1 expression level was found to be 8.540, the Lpar2 expression level is 0.303, the Lpar3 expression level is 0.300 and the Lpar4 expression level came out at 0.040. Besides, in test [1] (BMDC + LPA (2 hr.)), the Lpar5 expression level was determined as 1.517 and the Lpar6 expression level is given as 62.313. In test [1] (BMDC + LPA (6 hr.)), the Lpar1 expression level came to 2.240, the Lpar2 expression level is reported as 0.353, the Lpar3 expression level is listed as 0.253 and the Lpar4 expression level turned out to be 0.007. Also, in test [1] (BMDC + LPA (6 hr.)), the Lpar5 expression level was 2.837 and the Lpar6 expression level is 72.007. In addition, in the test with bone marrow-derived DCs (BMDCs co-treated with Tunicamycin (TM) and LPA (100 µM), Multiplex cytokine assays), the “production of IL-1b, IL-6, VEGF-a, LIF, M-CSF, GRO-a (IL-8) and MIP1-a” value is on record as “significant PERK-dependent overproduction”. Also, in the test on bone marrow-derived DCs (ER-stressed DCs simultaneously exposed to LPA, qPCR), the “expression of genes encoding IL-6, IL-1b, Arginase, Cox-2 and Vegf-A” value is listed as “potent upregulation”.
